Broadly, the Ki is the dissociation constant of the complex between target and ligand, obtained from inhibition or displacement. The low end stands for tighter binding, the high end for weaker binding.

One assay addresses D(1B) dopamine receptor (Homo sapiens, UniProt P21918). Briefly: Inhibition of dopamine D5 receptor.
Assay [1] concerns the target Alpha-2A adrenergic receptor (Homo sapiens, UniProt P08913). Briefly: Inhibition of alpha2A adrenergic receptor.

Chain of Alpha-2A adrenergic receptor (P08913 whole entry): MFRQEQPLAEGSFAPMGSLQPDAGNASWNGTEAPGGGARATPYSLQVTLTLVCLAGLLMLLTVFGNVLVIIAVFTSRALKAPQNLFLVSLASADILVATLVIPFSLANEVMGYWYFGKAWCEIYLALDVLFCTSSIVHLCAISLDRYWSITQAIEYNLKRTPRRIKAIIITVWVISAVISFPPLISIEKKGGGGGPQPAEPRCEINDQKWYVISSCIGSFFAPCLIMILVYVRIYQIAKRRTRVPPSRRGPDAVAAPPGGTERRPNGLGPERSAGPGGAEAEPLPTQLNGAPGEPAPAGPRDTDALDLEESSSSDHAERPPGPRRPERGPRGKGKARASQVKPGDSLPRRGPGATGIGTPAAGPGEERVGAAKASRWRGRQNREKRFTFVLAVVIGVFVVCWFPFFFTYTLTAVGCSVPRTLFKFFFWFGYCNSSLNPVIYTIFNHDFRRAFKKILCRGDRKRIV
Chain of D(1B) dopamine receptor (P21918 whole entry): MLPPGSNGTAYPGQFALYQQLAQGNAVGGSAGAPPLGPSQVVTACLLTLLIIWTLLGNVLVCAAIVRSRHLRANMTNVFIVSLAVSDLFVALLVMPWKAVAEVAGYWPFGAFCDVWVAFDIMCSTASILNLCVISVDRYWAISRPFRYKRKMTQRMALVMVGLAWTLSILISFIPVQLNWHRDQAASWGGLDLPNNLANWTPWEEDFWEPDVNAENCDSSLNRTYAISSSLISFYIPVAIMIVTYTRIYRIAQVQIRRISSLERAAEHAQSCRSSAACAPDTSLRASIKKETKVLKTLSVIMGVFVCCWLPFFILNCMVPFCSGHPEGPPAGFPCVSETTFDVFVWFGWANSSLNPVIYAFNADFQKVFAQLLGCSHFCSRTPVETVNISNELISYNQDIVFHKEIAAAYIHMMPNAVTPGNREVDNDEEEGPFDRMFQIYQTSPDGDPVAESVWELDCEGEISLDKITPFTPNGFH

Molecule `CN(Cc1cccc(F)c1)[C@H]1C2C3CC4C5C3CC2C5C41` (some centres not stated) returned a Ki on D(1B) dopamine receptor of over 10 µM.

In assay [1], `Fc1cccc(CCN[C@H]2C3C4CC5C6C4CC3C6C52)c1` (some centres not stated) had an inhibition constant Ki of 7.61 µM.
